Read-outs that look alike come from different tables or passages of the source.
What was measured:
Jurkat = Jurkat (proliferation, CellTiter-Glo); type: cell-based; conditions: read-out: Calculated IC50, Jurkat
CDK5/p25 = CDK5/p25 (Homo sapiens (Human), UniProt Q00535); assay: Life Technologies Z'-Lyte kinase assay, CDK5/p25; type: biochemical; conditions: read-out: Calculated IC50, CDK5/p25
CDK8/cyclin C = CDK8/cyclin C (Homo sapiens (Human), UniProt P49336); assay: Life Technologies LanthaScreen Eu kinase assay, CDK8; type: binding; conditions: read-out: Calculated IC50, CDK8/cyclin C
THP-1 = assay: Proliferation assay, CellTiter-Glo, 72 hour; type: cell-based; conditions: blood cancer cell line, read-out: Inhibition of proliferation, THP-1
MDA-MB231 = assay: Proliferation assay, CellTiter-Glo, 72 hour; type: cell-based; conditions: breast cancer cell line, read-out: Inhibition of proliferation, MDA-MB231
MCF7 = assay: Proliferation assay, CellTiter-Glo, 72 hour; type: cell-based; conditions: breast cancer cell line, read-out: Inhibition of proliferation, MCF7
MCF10A = assay: Proliferation assay, CellTiter-Glo, 72 hour; type: cell-based; conditions: non-tumorigenic breast epithelial cell line, read-out: Inhibition of proliferation, MCF10A
SKBR3 = assay: Proliferation assay, CellTiter-Glo, 72 hour; type: cell-based; conditions: breast cancer cell line, read-out: Inhibition of proliferation, SKBR3
A673 = assay: Proliferation assay, CellTiter-Glo, 72 hour; type: cell-based; conditions: Ewing's sarcoma cell line, read-out: Inhibition of proliferation, A673
Hs863T = assay: Proliferation assay, CellTiter-Glo, 72 hour; type: cell-based; conditions: Ewing's sarcoma cell line, read-out: Inhibition of proliferation, Hs863T
RD-ES = assay: Proliferation assay, CellTiter-Glo, 72 hour; type: cell-based; conditions: Ewing's sarcoma cell line, read-out: Inhibition of proliferation, RD-ES
SK-ES = assay: Proliferation assay, CellTiter-Glo, 72 hour; type: cell-based; conditions: Ewing's sarcoma cell line, read-out: Inhibition of proliferation, SK-ES
SAOS = assay: Proliferation assay, CellTiter-Glo, 72 hour; type: cell-based; conditions: osteosarcoma cell line, read-out: Inhibition of proliferation, SAOS
MNNG-HOS Cl#5 = assay: Proliferation assay, CellTiter-Glo, 72 hour; type: cell-based; conditions: osteosarcoma cell line, read-out: Inhibition of proliferation, MNNG-HOS Cl#5
[1] = system: RNAP II CTD phosphorylation; assay: RNAP II CTD phosphorylation immunoblot in Loucy cells (dose response, time course, washout); type: cell-based; conditions: for IC50: 4 hours
Description: Following the treatment, the cells were washed 2-fold with PBS. Fresh medium containing no inhibitors were added back to the cells. The cells were lysed at indicated time points, and the lysates were probed for RNAP II CTD phosphorylation.
CDK7 exerts its regulatory control of transcription largely by phosphorylating RNAP II CTD, which promotes active transcription. […] Reduction of Ser-5 phosphorylation was seen only at higher concentrations.
Covalent kinase inhibitors have several characteristics that functionally differentiate themselves from their reversible counterparts. […] Washout of compound I-23R, following a 4-hour administration led to the recovery of RNAP II CTD phosphorylation within 1 hour (FIG. 2C). […] This phenomenon was also visible using in vitro kinase reactions comparing pre-incubation of compound I-23 with compound I-23 introduced concurrently with ATP.

[2] = target: CDK7 (recombinant CAK complex) (Homo sapiens (Human), UniProt P50613); assay: In vitro kinase assay with recombinant CAK complex, with and without pre-incubation; type: biochemical; conditions: 25 μM ATP, 45 minutes at 30° C.
Description: Cellular lysates were then probed with antibodies recognizing the Ser-2, Ser-5, and Ser-7 CTD phosphoepitopes. […] At each time point cells were lysed, and the cellular lysates were probed using antibodies as described herein. […] Cells were allowed to grow in medium without inhibitor for 0 to 6 hours. At each time point cells were lysed, and the cellular lysates were probed using antibodies as described herein. […] The kinase reaction was then allowed to proceed for 45 minutes at 30° C.
In vitro kinase assays with immunoprecipitated proteins (or recombinant CAK complexes) were performed as follows. Kinase reactions were performed in 25 μL of final volume of reaction buffer (50 mM Hepes, pH 7.5, 150 mM NaCl, 10 mM MgCl2, 5% glycerol, 25 μM ATP, and 10 μCi of [γ-32P]ATP). Each reaction contained 1 μg of RNAP II. Incubation was at 30° C. for 30-45 min. Reactions were terminated by addition of 5 μL of 5×SDS-PAGE sample buffer and incubated at 95° C. for 5 min. Reactions were analyzed by SDS-PAGE, and the dried gel was exposed to film or PhosphorImager plate.
Covalent kinase inhibitors have several characteristics that functionally differentiate themselves from their reversible counterparts. […] Washout of compound I-23R, following a 4-hour administration led to the recovery of RNAP II CTD phosphorylation within 1 hour (FIG. 2C). […]

[3] = system: Jurkat and Loucy leukemia cell lines; assay: Anti-proliferative effect, cell titer glo, 72 hours; type: cell-based
Description: Precipitated proteins were washed and probed for CDK7.
(§1) Proliferation assays were conducted over a 48-72 hour time period (as noted). […] Cancer cell line profiling was performed over a 72 time period using Alamar Blue reagent.
The phenylamino-pyrimidine (PAP) core scaffold is a “privileged” ATP-site directed pharmacophore with the most famous example being imatinib, a Bcr-Abl inhibitor approved to treat several cancers including Chronic Myelogenous Leukemia. Numerous PAP derivatives have been reported as potent inhibitors of various CDKs; however, efforts to achieve greater selectivity amongst the CDK family members have been hindered by the high sequence and structural similarity of CDKs. […] In an effort to explore broadly which CDKs might be targetable by a covalent inhibitor, a library of acrylamide-modified PAPs was built, and the library was subject to cell proliferation as well broad kinase selectivity profiling using the Kinativ chemical proteomics approach.

[4] = system: panel of >300 diverse cancer cell lines; assay: Cancer cell line panel profiling, alamarBlue, 72 hours; type: cell-based, human
Description: At indicated time points, cellular lysates were harvested at the indicated times points and immunoblotted for the indicated proteins. […] Anti-proliferative effects were determined using cell titer glo analysis. […] Anti-proliferative effects were determined using alamarBlue® analysis. […] Anti-proliferative effects were determined using cell titer glo analysis. […] Dose: i.v. 1 mg/kg and p.o. 10 mg/kg.
as §1
CDK7 inhibitors display strong antiproflierative effects in leukemia and lymphoma cancer cells. However, a better definition of the breadth of their therapeutic potential in other cell types has not been reported. […] The rationale for examining such a large panel of human cancer cell lines is based on the fact that there is substantial genetic heterogeneity among human tumor cells, even with the same histological origins. In general, the data reveal a bimodal distribution with cell lines displaying exquisite sensitivity or apparent complete insensitivity to the compound.

CDK5/p25, sequence (Q00535 whole entry): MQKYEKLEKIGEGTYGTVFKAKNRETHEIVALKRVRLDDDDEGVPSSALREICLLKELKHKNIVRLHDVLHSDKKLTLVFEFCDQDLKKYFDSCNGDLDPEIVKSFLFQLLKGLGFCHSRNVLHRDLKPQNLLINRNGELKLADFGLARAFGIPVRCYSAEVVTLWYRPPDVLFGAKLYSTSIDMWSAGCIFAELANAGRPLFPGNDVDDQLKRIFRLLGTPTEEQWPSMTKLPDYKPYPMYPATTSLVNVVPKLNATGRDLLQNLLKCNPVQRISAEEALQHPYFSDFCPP
CDK5/p25, sequence (Q15078 99-307 partner): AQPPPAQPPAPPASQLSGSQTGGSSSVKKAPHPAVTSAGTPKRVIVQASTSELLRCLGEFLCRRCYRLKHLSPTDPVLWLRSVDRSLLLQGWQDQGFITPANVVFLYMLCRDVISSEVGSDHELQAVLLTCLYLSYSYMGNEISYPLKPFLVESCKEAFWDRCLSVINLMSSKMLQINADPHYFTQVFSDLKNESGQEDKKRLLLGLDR
CDK8/cyclin C, sequence (P49336 whole entry): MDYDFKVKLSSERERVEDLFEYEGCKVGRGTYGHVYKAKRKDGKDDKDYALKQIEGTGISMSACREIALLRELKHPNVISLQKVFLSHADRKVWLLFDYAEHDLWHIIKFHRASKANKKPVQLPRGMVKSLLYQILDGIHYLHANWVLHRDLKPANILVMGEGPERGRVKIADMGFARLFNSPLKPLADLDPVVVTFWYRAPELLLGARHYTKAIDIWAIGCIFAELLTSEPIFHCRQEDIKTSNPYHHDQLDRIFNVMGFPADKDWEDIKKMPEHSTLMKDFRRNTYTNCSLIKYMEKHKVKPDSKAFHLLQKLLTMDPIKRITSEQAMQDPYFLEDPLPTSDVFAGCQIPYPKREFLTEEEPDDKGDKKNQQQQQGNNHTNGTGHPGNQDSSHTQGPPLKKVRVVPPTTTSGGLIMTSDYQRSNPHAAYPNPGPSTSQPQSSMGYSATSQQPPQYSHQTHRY
CDK8/cyclin C, sequence (P24863 whole entry partner): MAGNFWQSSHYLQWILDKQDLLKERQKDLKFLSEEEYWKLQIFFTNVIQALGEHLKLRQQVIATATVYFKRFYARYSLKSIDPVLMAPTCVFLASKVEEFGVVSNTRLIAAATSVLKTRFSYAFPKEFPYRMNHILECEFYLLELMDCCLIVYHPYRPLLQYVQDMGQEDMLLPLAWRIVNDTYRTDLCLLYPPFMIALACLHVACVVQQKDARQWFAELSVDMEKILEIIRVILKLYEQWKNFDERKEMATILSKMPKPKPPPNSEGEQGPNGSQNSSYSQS
CDK7 (recombinant CAK complex), sequence (P50613 whole entry): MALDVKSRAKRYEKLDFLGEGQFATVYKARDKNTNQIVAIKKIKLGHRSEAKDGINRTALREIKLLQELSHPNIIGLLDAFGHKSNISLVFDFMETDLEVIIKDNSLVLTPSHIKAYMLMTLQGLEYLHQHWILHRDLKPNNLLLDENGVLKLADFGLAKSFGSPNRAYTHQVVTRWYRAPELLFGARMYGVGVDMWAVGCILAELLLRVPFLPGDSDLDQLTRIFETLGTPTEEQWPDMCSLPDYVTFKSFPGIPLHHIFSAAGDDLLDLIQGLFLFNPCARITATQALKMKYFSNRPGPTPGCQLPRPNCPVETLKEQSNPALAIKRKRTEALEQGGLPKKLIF
CDK7 (recombinant CAK complex), sequence (P51946 whole entry partner): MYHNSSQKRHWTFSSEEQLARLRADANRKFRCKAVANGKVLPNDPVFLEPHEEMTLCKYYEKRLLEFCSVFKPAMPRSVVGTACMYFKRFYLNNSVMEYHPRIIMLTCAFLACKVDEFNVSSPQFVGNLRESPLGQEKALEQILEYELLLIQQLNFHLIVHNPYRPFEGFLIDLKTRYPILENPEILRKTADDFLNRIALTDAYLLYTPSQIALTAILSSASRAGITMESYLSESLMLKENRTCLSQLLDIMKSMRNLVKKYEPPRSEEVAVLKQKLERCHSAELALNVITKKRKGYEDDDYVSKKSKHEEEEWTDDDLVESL
CDK7 (recombinant CAK complex), sequence (P51948 whole entry partner): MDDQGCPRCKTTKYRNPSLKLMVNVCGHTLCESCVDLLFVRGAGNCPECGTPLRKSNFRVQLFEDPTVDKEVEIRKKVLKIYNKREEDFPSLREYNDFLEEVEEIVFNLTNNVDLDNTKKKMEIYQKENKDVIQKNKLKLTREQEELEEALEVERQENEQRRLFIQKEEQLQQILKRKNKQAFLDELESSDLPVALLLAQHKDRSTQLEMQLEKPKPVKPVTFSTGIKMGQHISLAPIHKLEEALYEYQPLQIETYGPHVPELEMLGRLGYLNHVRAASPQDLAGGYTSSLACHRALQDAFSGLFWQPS

IC50 (Jurkat): < 100 nM | IC50 (CDK5/p25): 100 to 1000 nM | IC50 (CDK8/cyclin C): ≥ 1000 nM | IC50 (THP-1): < 500 nM | IC50 (MDA-MB231): < 500 nM | IC50 (MCF7): < 500 nM | IC50 (SKBR3): 500 to 5000 nM | IC50 (SK-ES): < 500 nM | IC50 ([1]; read-out: Cellular IC50 for RNAP II CTD Ser-2 phosphorylation): ~20 nM | IC50 ([1]; read-out: Cellular IC50 for RNAP II CTD Ser-7 phosphorylation): ~4 nM | IC50 ([4]; panel of >300 cancer cell lines, read-out: IC50 values in 24% of cell lines): > 2500 nM | IC50 ([4]; read-out: IC50s in 94% (132/140) of leukemia cell lines): < 200 nM | IC50 ([4]; read-out: IC50s in all (48/48) lymphoma cell lines): < 150 nM | IC50 ([4]; read-out: IC50 values in 70% of cell lines, panel of >300 cancer cell lines): < 200 nM
Structure (SMILES): CN(C)C/C=C/C(=O)Nc1ccc(C(=O)Nc2cccc(Nc3ncc(Cl)c(-c4c[nH]c5ccccc45)n3)c2)cc1 [Formula I-23]
IC50 (MCF10A): < 500 nM | IC50 (A673): < 500 nM | IC50 (Hs863T): 500 to 5000 nM | IC50 (RD-ES): < 500 nM | IC50 (SAOS): < 500 nM | IC50 (MNNG-HOS Cl#5): 500 to 5000 nM | Time to complete inhibition of target (inactivation of CDK7, RNAP II CTD phosphorylation) ([1]; treated 0 to 4 hours): 3 to 4 h | Recovery of RNAP II CTD phosphorylation after inhibitor washout ([1]; washout following a 4-hour administration): did not restore normal CTD phosphorylation levels | Effect of pre-incubation with recombinant CAK complex prior to addition of ATP [2]: dramatic increase in CDK7 inhibitory activity | Inhibition of proliferation of Jurkat and Loucy leukemia cell lines [3]: potently inhibits proliferation

— patent publication US10787436B2, “Inhibitors of cyclin-dependent kinase 7 (CDK7)” (Dana-Farber Cancer Institute, Inc., priority 2012, dated 2020)
